Test results taken from PMC10947113, “A Bivalent Activatable Fluorescent Probe for Screening and Intravital Imaging of Chemotherapy‐Induced Cancer Cell Death” (Angewandte Chemie (Weinheim an Der Bergstrasse, Germany), 2021).

Tested on: MMTV-PyMT mammary gland tumours
Assay: Intravital imaging and ex vivo quantification of cisplatin-induced apoptosis
Format: in vivo, mouse
Text: Optical intravital imaging is increasingly used for the preclinical evaluation of anticancer drugs in vivo. Although imaging modalities like computed tomography, positron emission tomography and magnetic resonance imaging can help to visualise whole intact organs in a non‐invasive manner,[26] they lack the spatiotemporal resolution needed to study dynamic interactions between individual tumour and stromal cells. This feature is critical to understand the mechanism of action of anticancer drugs and how they can affect interactions between cancer cells and immune cells in the tumour microenvironment.[27] Intravital imaging heavily relies on the acquisition of fluorescence signals using multiphoton microscopy, which provides cellular resolution with deep tissue penetration (≈500 μm) and minimal photodamage.[28] […] First, we analysed the chemical stability of Apotracker Red for in vivo studies by incubating the probe in mouse serum. […] When primary tumours measured around 0.5–1 cm in diameter, we administered cisplatin intraperitoneally (10 mg kg^−1). […]
were centrifuged (300 g, 5 min, r.t.), washed once with PBS before addition of 0.05% Trypsin, 0.02% ethylenediaminetetraacetic acid (EDTA) in Hank’s balanced salt solution (HBSS) and incubation at 37°C for 5 min. […] Histograms and mean fluorescence intensities of apoptotic cells were measured on a 5L LSR flow cytometer under the following […]

N.N.[Cl][Pt][Cl] [cisplatin]
Apotracker Red fluorescence in tumours of cisplatin-treated mice (cancer cell death) (MMTV-PyMT;ACTB-ECFP mice, cisplatin 10 mg kg^-1 intraperitoneally, Apotracker Red 650 ng i.v. after 72 h, two-photon intravital imaging): strong red fluorescent signals indicating cancer cell death induced by the drug | relative percentages of apoptotic cells in tumours, ex vivo quantification (cisplatin 10 μg g^-1 i.p., day 3, at least 5 tumour areas per mouse, mean±SEM, one-way ANOVA p<0.05): significant differences
